#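 The concentration for 50% growth inhibition is given as GI50. TGI is the concentration that stops growth completely.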
# Tests used:
# Test in all cases: NCI tumour cell line growth inhibition, 384-well format
# [1] = test system: UACC-62 melanoma
# [2] = test system: UACC-257 melanoma
# [3] = test system: NCI/ADR-RES ovarian
# [4] = test system: SF-295 CNS
# [5] = test system: OVCAR-8 ovarian
# [6] = test system: UO-31 renal
# [7] = test system: MDA-MB-435 melanoma
# [8] = test system: IGROV1 ovarian
# [9] = test system: OVCAR-5 ovarian
# [10] = test system: MDA-MB-468 breast
# [11] = test system: CCRF-CEM leukemia
# [12] = test system: SF-539 CNS
# [13] = test system: NCI-H226 lung
# [14] = test system: SK-MEL-2 melanoma
# [15] = test system: SR leukemia
# [16] = test system: CAKI-1 renal
# [17] = test system: A498 renal
# [18] = test system: A549 NSCLC
# [19] = test system: 786-0 renal
# [20] = test system: OVCAR-4 ovarian
# [21] = test system: MALME-3M melanoma
# [22] = test system: TK-10 renal
# [23] = test system: LOX IMVI melanoma
# [24] = test system: OVCAR-3 ovarian
# [25] = test system: RPMI-8226 leukemia
# [26] = test system: SF-268 CNS
# [27] = test system: M14 melanoma
# [28] = test system: HCT-15 colon
# [29] = test system: HOP-92 NSCLC
# [30] = test system: MCF7 breast
# [31] = test system: SK-OV-3 ovarian
# [32] = test system: HL-60(TB) leukemia
# [33] = test system: SK-MEL-28 melanoma
# [34] = test system: SW-620 colon
# [35] = test system: DU-145 prostate
# [36] = test system: MOLT-4 leukemia
# [37] = test system: KM12 colon
# [38] = test system: NCI-H460 NSCLC
# [39] = test system: ACHN renal
# [40] = test system: HOP-62 NSCLC
# [41] = test system: COLO 205 colon
# [42] = test system: HCC-2998 colon
# [43] = test system: NCI-H322M lung
# [44] = test system: K-562 leukemia
# [45] = test system: SK-MEL-5 melanoma
# [46] = test system: HT29 colon
# [47] = test system: HCT-116 colon
# [48] = test system: BT-549 breast
# [49] = test system: NCI-H522 lung
# [50] = test system: T-47D breast
# [51] = test system: SN12C renal
# [52] = test system: MDA-MB-231 breast
# [53] = test system: SNB-19 CNS
# [54] = test system: U251 glioblastoma
# [55] = test system: PC-3 prostate
# [56] = test system: NCI-H23 lung
# [57] = test system: RXF 393 renal
# [58] = test system: EKVX NSCLC
# [59] = test system: HS 578T breast
# [60] = test system: SNB-75 CNS
structure (smiles),measurement,setting,value
COc1cc(F)cc([C@@H](CO)NC(=O)[C@@H](C)N2Cc3ccc(-c4nc(NC5CCOCC5)ncc4Cl)cc3C2=O)c1,GI50,[1],< 0.01 µM
same,TGI,[1],0.0427 µM
same,GI50,[2],< 0.01 µM
same,TGI,[2],0.0209 µM
same,GI50,[3],14.7 µM
same,TGI,[3],31.9 µM
same,GI50,[4],15.2 µM
same,TGI,[4],43 µM
same,GI50,[5],12.4 µM
same,TGI,[5],28.2 µM
same,GI50,[6],0.578 µM
same,TGI,[6],20.1 µM
same,GI50,[7],0.0103 µM
same,TGI,[7],20.1 µM
same,GI50,[8],0.145 µM
same,TGI,[8],12.6 µM
same,GI50,[9],0.0102 µM
same,TGI,[9],> 100 µM
same,GI50,[10],0.325 µM
same,TGI,[10],10 µM
same,GI50,[11],11.7 µM
same,TGI,[11],24.7 µM
same,GI50,[12],0.382 µM
same,TGI,[12],15.6 µM
same,GI50,[13],0.214 µM
same,TGI,[13],16.1 µM
same,GI50,[14],< 0.01 µM
same,TGI,[14],0.0312 µM
same,GI50,[15],0.499 µM
same,TGI,[15],14.7 µM
same,GI50,[16],0.096 µM
same,TGI,[16],33.3 µM
same,GI50,[17],10.4 µM
same,TGI,[17],36.1 µM
same,GI50,[18],0.0457 µM
same,TGI,[18],17.3 µM
same,GI50,[19],11.3 µM
same,TGI,[19],34.1 µM
same,GI50,[20],13.2 µM
same,TGI,[20],39.3 µM
same,GI50,[21],< 0.01 µM
same,TGI,[21],< 0.01 µM
same,GI50,[22],0.821 µM
same,TGI,[22],40.3 µM
same,GI50,[23],0.0134 µM
same,TGI,[23],0.0671 µM
same,GI50,[24],13.9 µM
same,TGI,[24],33.3 µM
same,GI50,[25],0.224 µM
same,TGI,[25],5.09 µM
same,GI50,[26],25.5 µM
same,TGI,[26],79.5 µM
same,GI50,[27],< 0.01 µM
same,TGI,[27],0.0138 µM
same,GI50,[28],14.4 µM
same,TGI,[28],75.6 µM
same,GI50,[29],0.0249 µM
same,TGI,[29],0.162 µM
same,GI50,[30],16.5 µM
same,TGI,[30],31.9 µM
same,GI50,[31],6.75 µM
same,TGI,[31],63.2 µM
same,GI50,[32],< 0.01 µM
same,TGI,[32],0.0429 µM
same,GI50,[33],< 0.01 µM
same,TGI,[33],< 0.01 µM
same,GI50,[34],0.0132 µM
same,TGI,[34],19.3 µM
same,GI50,[35],11.3 µM
same,TGI,[35],38.7 µM
same,GI50,[36],7.8 µM
same,TGI,[36],20.2 µM
same,GI50,[37],0.0465 µM
same,TGI,[37],16.4 µM
same,GI50,[38],1.12 µM
same,TGI,[38],31.3 µM
same,GI50,[39],5.8 µM
same,TGI,[39],60.8 µM
same,GI50,[40],0.218 µM
same,TGI,[40],25.9 µM
same,GI50,[41],< 0.01 µM
same,TGI,[41],0.0246 µM
same,GI50,[42],< 0.01 µM
same,TGI,[42],0.0408 µM
same,GI50,[43],0.0722 µM
same,TGI,[43],25.8 µM
same,GI50,[44],0.409 µM
same,TGI,[44],19 µM
same,GI50,[45],0.0181 µM
same,TGI,[45],12.1 µM
same,GI50,[46],< 0.01 µM
same,TGI,[46],13.4 µM
same,GI50,[47],0.0137 µM
same,TGI,[47],0.201 µM
same,GI50,[48],11.4 µM
same,TGI,[48],23.8 µM
same,GI50,[49],11.3 µM
same,TGI,[49],27.4 µM
same,GI50,[50],11.7 µM
same,TGI,[50],24.1 µM
same,GI50,[51],16.6 µM
same,TGI,[51],85.4 µM
same,GI50,[52],0.0854 µM
same,TGI,[52],19.1 µM
same,GI50,[53],11 µM
same,TGI,[53],> 100 µM
same,GI50,[54],0.46 µM
same,TGI,[54],42.7 µM
same,GI50,[55],18.3 µM
same,TGI,[55],36.2 µM
same,GI50,[56],< 0.01 µM
same,TGI,[56],0.0221 µM
same,GI50,[57],0.441 µM
same,TGI,[57],16.9 µM
Cc1cc([N+](=O)[O-])ccc1NS(=O)(=O)c1cc(Cl)ccc1Cl,GI50,[1],13.3 µM
same,TGI,[1],33.3 µM
same,GI50,[2],4.95 µM
same,TGI,[2],19.2 µM
same,GI50,[3],3.26 µM
same,TGI,[3],15.9 µM
same,GI50,[4],3.99 µM
same,TGI,[4],22.1 µM
same,GI50,[58],3.64 µM
same,TGI,[58],14.6 µM
same,GI50,[59],3.02 µM
same,TGI,[59],10.6 µM
same,GI50,[6],12.4 µM
same,TGI,[6],43.9 µM
same,GI50,[7],3.21 µM
same,TGI,[7],26.6 µM
same,GI50,[8],18.9 µM
same,TGI,[8],> 100 µM
same,GI50,[9],12.9 µM
same,TGI,[9],44.1 µM
same,GI50,[10],2.16 µM
same,TGI,[10],9.32 µM
same,GI50,[11],5.19 µM
same,TGI,[11],18.4 µM
same,GI50,[12],5.29 µM
same,TGI,[12],20.1 µM
same,GI50,[13],6.27 µM
same,TGI,[13],20.2 µM
same,GI50,[14],33.1 µM
same,TGI,[14],49.5 µM
same,GI50,[15],19.1 µM
same,TGI,[15],33.3 µM
same,GI50,[16],5.52 µM
same,TGI,[16],39 µM
same,GI50,[17],4.63 µM
same,TGI,[17],22.6 µM
same,GI50,[18],4.62 µM
same,TGI,[18],24 µM
same,GI50,[19],7.49 µM
same,TGI,[19],33.6 µM
same,GI50,[20],6.02 µM
same,TGI,[20],> 100 µM
same,GI50,[21],5.38 µM
same,TGI,[21],24.4 µM
same,GI50,[22],11.4 µM
same,TGI,[22],> 100 µM
same,GI50,[23],3.74 µM
same,TGI,[23],13.3 µM
same,GI50,[24],3.56 µM
same,TGI,[24],15.4 µM
same,GI50,[25],2.09 µM
same,TGI,[25],4.48 µM
same,GI50,[26],3.78 µM
same,TGI,[26],27.5 µM
same,GI50,[27],16.9 µM
same,TGI,[27],68.3 µM
same,GI50,[28],3.44 µM
same,TGI,[28],14.9 µM
same,GI50,[29],3.63 µM
same,TGI,[29],16.4 µM
same,GI50,[30],7.65 µM
same,TGI,[30],25.2 µM
same,GI50,[60],9.67 µM
same,TGI,[60],35.4 µM
same,GI50,[31],13.8 µM
same,TGI,[31],49.8 µM
same,GI50,[32],2.74 µM
same,TGI,[32],5.97 µM
same,GI50,[33],5.46 µM
same,TGI,[33],32.4 µM
same,GI50,[34],5.93 µM
same,TGI,[34],46 µM
same,GI50,[35],10.1 µM
same,TGI,[35],> 100 µM
same,GI50,[36],7.48 µM
same,TGI,[36],20.2 µM
same,GI50,[37],6.61 µM
same,TGI,[37],43.9 µM
same,GI50,[38],2.89 µM
same,TGI,[38],11.6 µM
same,GI50,[39],14.4 µM
same,TGI,[39],67.9 µM
same,GI50,[40],13.5 µM
same,TGI,[40],35.5 µM
same,GI50,[41],17.1 µM
same,TGI,[41],78 µM
same,GI50,[42],5.29 µM
same,TGI,[42],24.5 µM
same,GI50,[43],3.85 µM
same,TGI,[43],16.4 µM
same,GI50,[44],7.36 µM
same,TGI,[44],55.7 µM
same,GI50,[45],2.45 µM
same,TGI,[45],7.27 µM
same,GI50,[46],4.53 µM
same,TGI,[46],> 100 µM
same,GI50,[47],4.45 µM
same,TGI,[47],16 µM
same,GI50,[48],3.08 µM
same,TGI,[48],8.84 µM
same,GI50,[49],2.87 µM
same,TGI,[49],8.65 µM
same,GI50,[50],2.65 µM
same,TGI,[50],6.31 µM
same,GI50,[51],5.83 µM
same,TGI,[51],49.4 µM
same,GI50,[52],5.07 µM
same,TGI,[52],30.8 µM
same,GI50,[53],5.5 µM
same,TGI,[53],75.6 µM
same,GI50,[54],2.91 µM
same,TGI,[54],10.5 µM
same,GI50,[55],3.59 µM
same,TGI,[55],14.6 µM
same,GI50,[56],2.98 µM
same,TGI,[56],13.1 µM
same,GI50,[57],4.56 µM
same,TGI,[57],22.3 µM

# Reference: PubChem BioAssay (NCI)
